Data: US12209096B2, “Compounds and compositions for inducing chondrogenesis” (NOVARTIS AG, priority 2017, dated 2025)
pEC50: −log10 of the molar value. Like-named read-outs stand apart in the source and are kept apart here.

System: NHACs
Assay: calcium flux assay
Type: cell-based, human
Conditions: for Emax: read-out: (A) % Efficacy
Procedure: NHACs were plated in 1536 Greiner plate at 2000 cells/well in 4 ul volume. 24 hours later, 4 ul of Calcium 5 dye solution (Hank's Balanced Salt/HEPES buffer containing 5 mM of Probenecid) was then added and incubated for 1 hour at room temperature. Fluorescence readings at excitation wavelength of 470-495 nm and emission wavelength of 515-575 nm were done using FLIPR high-throughput screening system (Molecular Devices, Sunnyvale, CA). The test compound was then added to each well at the indicated dose. Signal was measured prior compound dispense and after using a first interval of 1 second for 60 reads and second interval of 3 second for 20 reads. Data was analyzed using Molecular Devices ScreenWorks® Software.

Compound: COc1ccc(NC(=O)[C@H]2[C@@H](c3ccnc(C)c3)[C@H]3O[C@@H]2C[C@H]3F)cn1 [Example 14, (1R,2S,3S,4R,5R)-5-fluoro-N-(6-methoxypyridin-3-yl)-3-(2-methylpyridin-4-yl)-7-oxabicyclo[2.2.1]heptane-2-carboxamide]
- pEC50 (Homo sapiens): 5.08
- Emax (Homo sapiens): 115%

Compound: COc1ccc(NC(=O)[C@H]2[C@H]3O[C@H]([C@@H]4C[C@@H]43)[C@H]2c2ccc(C)nc2)cn1 [Example 3, (1R,2R,4S,5S,6R,7R)-N-(6-methoxypyridin-3-yl)-7-(6-methylpyridin-3-yl)-8-oxatricyclo[3.2.1.0^2,4]octane-6-carboxamide]
- pEC50 (Homo sapiens): < 4.30
- Emax (Homo sapiens): 0%

Compound: Nc1cc([C@H]2[C@H]3O[C@H](C[C@@H]3O)[C@H]2C(=O)Nc2ccc(Cl)c(Cl)c2)ccn1 [Example 57, (1R,2S,3S,4R,5S)-3-(2-aminopyridin-4-yl)-N-(3,4-dichlorophenyl)-5-hydroxy-7-oxabicyclo[2.2.1]heptane-2-carboxamide]
- pEC50 (Homo sapiens): < 4.30
- Emax (Homo sapiens): 56%

Compound: COc1ccc(NC(=O)[C@@H]2[C@@H](c3ccnc(C)c3)[C@H]3O[C@@H]2C[C@H]3F)cn1 [Example 97, (1R,2R,3S,4R,5R)-5-fluoro-N-(6-methoxypyridin-3-yl)-3-(2-methylpyridin-4-yl)-7-oxabicyclo[2.2.1]heptane-2-carboxamide]
- pEC50 (Homo sapiens): < 4.30
- Emax (Homo sapiens): 2%

Compound: Nc1ncc([C@H]2[C@H]3O[C@H](C[C@@H]3F)[C@H]2C(=O)Nc2ccc(Cl)c(Cl)c2)cn1 [Example 20, (1R,2S,3S,4R,5S)-3-(2-aminopyrimidin-5-yl)-N-(3,4-dichlorophenyl)-5-fluoro-7-oxabicyclo[2.2.1]heptane-2-carboxamide]
- pEC50 (Homo sapiens): < 4.30
- Emax (Homo sapiens): 5%

Compound: Nc1ncc([C@H]2[C@H]3O[C@H]([C@@H]4C[C@@H]43)[C@@H]2C(=O)Nc2ccc(Cl)c(Cl)c2)cn1 [Example 132, (1S,2S,4R,5R,6R,7S)-7-(2-aminopyrimidin-5-yl)-N-(3,4-dichlorophenyl)-8-oxatricyclo[3.2.1.0^2,4]octane-6-carboxamide]
- pEC50 (Homo sapiens): 4.74
- Emax (Homo sapiens): 321%

Compound: Cc1cc([C@H]2[C@H]3O[C@H](C[C@H]3F)[C@@H]2C(=O)Nc2cnc(Cl)c(Cl)c2)ccn1 [Example 98, (1R,2R,3S,4R,5R)—N-(5,6-dichloropyridin-3-yl)-5-fluoro-3-(2-methylpyridin-4-yl)-7-oxabicyclo[2.2.1]heptane-2-carboxamide]
- pEC50 (Homo sapiens): 4.68
- Emax (Homo sapiens): 404%

Compound: Cc1cc([C@H]2[C@H]3O[C@H](C[C@@H]3O)[C@@H]2C(=O)Nc2cc(Cl)c(Cl)cn2)ccn1 [Example 80, (1R,2R,3S,4R,5S)—N-(4,5-dichloropyridin-2-yl)-5-hydroxy-3-(2-methylpyridin-4-yl)-7-oxabicyclo[2.2.1]heptane-2-carboxamide]
- pEC50 (Homo sapiens): < 4.30
- Emax (Homo sapiens): 32%

Compound: O=C(Nc1ccc(Cl)c(Cl)c1)[C@@H]1[C@@H](c2ccnc(F)c2F)[C@H]2O[C@@H]1C[C@@H]2O [Example 146, (1R,2R,3S,4R,5S)—N-(3,4-dichlorophenyl)-3-(2,3-difluoropyridin-4-yl)-5-hydroxy-7-oxabicyclo[2.2.1]heptane-2-carboxamide]
- pEC50 (Homo sapiens): 4.70
- Emax (Homo sapiens): 150%

Compound: Cc1cc([C@@H]2[C@@H](C(=O)Nc3ccc(Cl)c(Cl)c3)[C@H]3C[C@@](C)(O)[C@@H]2O3)ccn1 [Example 178, (1R,2R,3S,4R,5R)—N-(3,4-dichlorophenyl)-5-hydroxy-5-methyl-3-(2-methylpyridin-4-yl)-7-oxabicyclo[2.2.1]heptane-2-carboxamide]
- pEC50 (Homo sapiens): < 4.30
- Emax (Homo sapiens): 1%

Compound: O=C(Nc1ccc(Cl)c(Cl)c1)[C@@H]1[C@@H](c2cncnc2)[C@H]2O[C@@H]1C[C@@H]2O [Example 141, (1R,2R,3S,4R,5S)—N-(3,4-dichlorophenyl)-5-hydroxy-3-(pyrimidin-5-yl)-7-oxabicyclo[2.2.1]heptane-2-carboxamide]
- pEC50 (Homo sapiens): 4.89
- Emax (Homo sapiens): 43%

Compound: O=C(Nc1cnc(Cl)c(Cl)c1)[C@@H]1[C@H]2O[C@H]([C@@H]3C[C@@H]32)[C@H]1c1ccnc(F)c1F (single isomer, unassigned) [Example 73]
- pEC50 (Homo sapiens): 4.80
- Emax (Homo sapiens): 127%

Compound: Cc1cc([C@H]2[C@H]3O[C@H](C[C@@H]3O)[C@@H]2C(=O)Nc2ccc(-c3ccccc3F)c(Cl)c2)ccn1 [Example 78, (1R,2R,3S,4R,5S)—N-(2-chloro-2′-fluoro-[1,1′-biphenyl]-4-yl)-5-hydroxy-3-(2-methylpyridin-4-yl)-7-oxabicyclo[2.2.1]heptane-2-carboxamide]
- pEC50 (Homo sapiens): < 4.30
- Emax (Homo sapiens): 70%

Compound: Cc1cc([C@@H]2[C@@H]3O[C@@H]([C@H]4C[C@H]43)[C@@H]2C(=O)Nc2ccc(Cl)c(Cl)c2)ccn1 (single isomer, unassigned) [Example 23b]
- pEC50 (Homo sapiens): < 4.30
- Emax (Homo sapiens): 0%

Compound: Cc1cc([C@@H]2[C@@H](C(=O)Nc3cccc(C(F)(F)F)c3)[C@@H]3O[C@H]2C[C@H]3F)ccn1 [Example 108, (1S,2R,3S,4S,6R)-6-fluoro-3-(2-methylpyridin-4-yl)-N-(3-(trifluoromethyl)phenyl)-7-oxabicyclo[2.2.1]heptane-2-carboxamide]
- pEC50 (Homo sapiens): 4.57
- Emax (Homo sapiens): 137%

Compound: Cc1cc([C@H]2[C@H]3O[C@H]([C@H](O)[C@@H]3O)[C@@H]2C(=O)Nc2cnc(C)c(C(F)(F)F)c2)ccn1 [Example 163, (1S,2R,3S,4R,5S,6R)-5,6-dihydroxy-N-(6-methyl-5-(trifluoromethyl)pyridin-3-yl)-3-(2-methylpyridin-4-yl)-7-oxabicyclo[2.2.1]heptane-2-carboxamide]
- pEC50 (Homo sapiens): < 4.30
- Emax (Homo sapiens): 23%

Compound: Cc1ncc([C@H]2[C@H]3O[C@H]([C@@H]4C[C@@H]43)[C@@H]2C(=O)Nc2ccc(Cl)c(Cl)c2)cn1 [Example 135, (1S,2S,4R,5R,6R,7S)—N-(3,4-dichlorophenyl)-7-(2-methylpyrimidin-5-yl)-8-oxatricyclo[3.2.1.0^2,4]octane-6-carboxamide]
- pEC50 (Homo sapiens): 4.80
- Emax (Homo sapiens): 237%

Compound: O=C(Nc1cnc(Cl)c(Cl)c1)[C@@H]1[C@@H]2O[C@@H]([C@H]3C[C@H]32)[C@@H]1c1ccnc(F)c1F [Example 32, (1S,2S,4R,5R,6S,7S)—N-(5,6-dichloropyridin-3-yl)-7-(2,3-difluoropyridin-4-yl)-8-oxatricyclo[3.2.1.0^2,4]octane-6-carboxamide]
- pEC50 (Homo sapiens): 4.89
- Emax (Homo sapiens): 143%

Compound: Cc1ccc([C@H]2[C@H]3O[C@H](C[C@@H]3F)[C@@H]2C(=O)Nc2ccc(Cl)c(Cl)c2)cn1 [Example 115, (1R,2R,3S,4R,5S)—N-(3,4-dichlorophenyl)-5-fluoro-3-(6-methylpyridin-3-yl)-7-oxabicyclo[2.2.1]heptane-2-carboxamide]
- pEC50 (Homo sapiens): 4.48
- Emax (Homo sapiens): 49%

Compound: CN(C)[C@@H]1C[C@H]2O[C@@H]1[C@H](c1ccnc(F)c1)[C@H]2C(=O)Nc1cnc(Cl)c(Cl)c1 [Example 175, (1R,2R,3S,4R,5R)—N-(5,6-dichloropyridin-3-yl)-5-(dimethylamino)-3-(2-fluoropyridin-4-yl)-7-oxabicyclo[2.2.1]heptane-2-carboxamide]
- pEC50 (Homo sapiens): 4.54
- Emax (Homo sapiens): 186%

Compound: Nc1ncc([C@@H]2[C@@H](C(=O)Nc3ccc(Cl)c(Cl)c3)[C@@H]3O[C@H]2C[C@H]3F)cn1 [Example 114, (1S,2R,3S,4S,6R)-3-(2-aminopyrimidin-5-yl)-N-(3,4-dichlorophenyl)-6-fluoro-7-oxabicyclo[2.2.1]heptane-2-carboxamide]
- pEC50 (Homo sapiens): 4.52
- Emax (Homo sapiens): 127%

Compound: O=C(Nc1cnc(Cl)c(Cl)c1)[C@@H]1[C@@H](c2ccnc(F)c2)[C@H]2O[C@@H]1C[C@H]2NCCO [Example 176, (1R,2R,3S,4R,5R)—N-(5,6-dichloropyridin-3-yl)-3-(2-fluoropyridin-4-yl)-5-((2-hydroxyethyl)amino)-7-oxabicyclo[2.2.1]heptane-2-carboxamide]
- pEC50 (Homo sapiens): 4.60
- Emax (Homo sapiens): 51%

Compound: O=C(Nc1ccc(Cl)c(Cl)c1)[C@H]1[C@H](c2ccnc(F)c2)[C@@H]2O[C@H]1C[C@H]2O [Example 142b, (1S,2S,3R,4S,5R)-N-(3,4-dichlorophenyl)-3-(2-fluoropyridin-4-yl)-5-hydroxy-7-oxabicyclo[2.2.1]heptane-2-carboxamide]
- pEC50 (Homo sapiens): 6.10
- Emax (Homo sapiens): 54%

Compound: (1R,2S,3S,4R,5S)-5-hydroxy-3-(pyridin-4-yl)-N-[3-(trifluoromethyl)phenyl]-7-oxabicyclo[2.2.1]heptane-2-carboxamide [Example 11]
- (A) % Efficacy: 27%
- pEC50: < 4.30

Compound: O=C(Nc1cnc(Cl)c(Cl)c1)[C@H]1[C@@H]2O[C@@H]([C@H]3C[C@H]32)[C@@H]1c1ccnc(F)c1F (single isomer, unassigned) [Example 72]
- pEC50 (Homo sapiens): 5.11
- Emax (Homo sapiens): 208%

Compound: COc1cc([C@H]2[C@H]3O[C@H](C[C@@H]3O)[C@H]2C(=O)Nc2ccc(Cl)c(Cl)c2)ccn1 (racemic) [Example 49, rac-(1R,2S,3S,4R,5S)—N-(3,4-dichlorophenyl)-5-hydroxy-3-(2-methoxypyridin-4-yl)-7-oxabicyclo[2.2.1]heptane-2-carboxamide]
- pEC50 (Homo sapiens): 4.96
- Emax (Homo sapiens): 77%

Compound: Cc1cc([C@H]2[C@H]3O[C@H](C[C@H]3N[C@H]3C[C@H](O)C3)[C@@H]2C(=O)Nc2ccc(Cl)c(Cl)c2)ccn1 [Example 170, (1R,2R,3S,4R,5R)—N-(3,4-dichlorophenyl)-5-(((1r,3R)-3-hydroxycyclobutyl)amino)-3-(2-methylpyridin-4-yl)-7-oxabicyclo[2.2.1]heptane-2-carboxamide]
- pEC50 (Homo sapiens): < 4.30
- Emax (Homo sapiens): 37%

Compound: Cc1ccc([C@H]2[C@H]3O[C@H](C[C@@H]3O)[C@H]2C(=O)Nc2ccc(Cl)c(Cl)c2)cn1 [Example 48, (1R,2S,3S,4R,5S)—N-(3,4-dichlorophenyl)-5-hydroxy-3-(6-methylpyridin-3-yl)-7-oxabicyclo[2.2.1]heptane-2-carboxamide]
- pEC50 (Homo sapiens): 4.66
- Emax (Homo sapiens): 80%
